Data as given in patent US9549912B2, “Methods for treating atrial fibrillation” (Armetheon, Inc., priority 2009, dated 2017).
Read-outs that look alike come from different tables or passages of the source.

What was measured:
[1] = Electrophysiological activity in animals: atrial refractoriness, metabolite activity; assay type: in vivo; conditions: in vivo
[2] = cited from earlier work
P-glycoprotein (P-gp) = P-glycoprotein (P-gp) (Homo sapiens, UniProt P08183); conditions: cited from earlier work
Chain of P-glycoprotein (P-gp) (P08183 whole entry): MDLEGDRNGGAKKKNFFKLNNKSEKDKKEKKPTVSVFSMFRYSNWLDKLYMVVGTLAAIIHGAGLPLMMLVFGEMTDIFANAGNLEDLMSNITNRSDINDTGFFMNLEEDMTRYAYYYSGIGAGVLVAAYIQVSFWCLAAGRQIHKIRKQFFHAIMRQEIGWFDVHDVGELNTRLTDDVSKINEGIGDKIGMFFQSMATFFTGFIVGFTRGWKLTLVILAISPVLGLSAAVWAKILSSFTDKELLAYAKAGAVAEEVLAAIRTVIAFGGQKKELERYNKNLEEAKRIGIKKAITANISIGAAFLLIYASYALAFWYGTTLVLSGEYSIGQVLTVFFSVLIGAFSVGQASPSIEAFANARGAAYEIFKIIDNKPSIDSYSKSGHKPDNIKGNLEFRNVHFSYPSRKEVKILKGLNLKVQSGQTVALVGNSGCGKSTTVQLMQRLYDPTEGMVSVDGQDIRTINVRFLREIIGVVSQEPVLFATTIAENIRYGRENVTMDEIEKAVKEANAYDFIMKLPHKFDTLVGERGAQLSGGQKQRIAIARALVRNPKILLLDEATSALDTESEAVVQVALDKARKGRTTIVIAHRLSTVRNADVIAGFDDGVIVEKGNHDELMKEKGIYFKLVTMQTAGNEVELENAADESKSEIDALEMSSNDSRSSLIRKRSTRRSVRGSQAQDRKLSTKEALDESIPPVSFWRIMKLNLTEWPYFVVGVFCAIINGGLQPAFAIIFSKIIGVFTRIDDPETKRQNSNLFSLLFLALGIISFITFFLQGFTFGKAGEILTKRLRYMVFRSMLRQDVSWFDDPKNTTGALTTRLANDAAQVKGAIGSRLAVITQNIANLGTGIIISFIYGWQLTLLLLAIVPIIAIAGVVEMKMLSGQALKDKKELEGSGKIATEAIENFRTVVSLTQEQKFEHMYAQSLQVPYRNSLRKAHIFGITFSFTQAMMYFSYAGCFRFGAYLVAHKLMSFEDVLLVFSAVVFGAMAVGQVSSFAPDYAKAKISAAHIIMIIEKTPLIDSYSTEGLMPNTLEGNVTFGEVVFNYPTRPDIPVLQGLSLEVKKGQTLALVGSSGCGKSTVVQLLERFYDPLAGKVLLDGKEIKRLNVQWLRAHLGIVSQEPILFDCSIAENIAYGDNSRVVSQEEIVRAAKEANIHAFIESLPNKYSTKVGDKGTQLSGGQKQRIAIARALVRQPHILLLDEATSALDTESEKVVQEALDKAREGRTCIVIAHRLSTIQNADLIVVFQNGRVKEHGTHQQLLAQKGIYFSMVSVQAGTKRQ

[3] = 2 years; 8 for the placebo; cited from earlier work
AF patients = conditions: followed for a year, versus placebo; cited from earlier work
[4] = Phase 2 clinical trial of tecarfarin: time in therapeutic INR range versus warfarin; assay type: in vivo, human; conditions: for proportion of time with INR below 1.5 / proportion of time with INR between 1.5 and 1.9: human, in vivo; for time in therapeutic range (TTR), INR between 2.0 and 3.0: same patient population, previously on warfarin
patients with AF = conditions: cited from earlier work

**Q.** Which electrophysiological activity [1] does the source give for `CCN(CC)CCOc1c(I)cc(C(=O)c2c(CC(=O)O)oc3ccccc23)cc1I` [ATI-2000] here?
**A.** The electrophysiological activity was “electrophysiologically inactive”.

**Q.** What does the source list for `[H]/N=C(/N)c1ccc(NCc2nc3cc(C(=O)N(CCC(=O)O)c4ccccn4)ccc3n2C)cc1` [dabigatran]?
**A.** major bleeding versus warfarin ([2]; 110 mg): superior; major bleeding versus warfarin ([2]; 150 mg): noninferior; P-gp substrate status (P-glycoprotein (P-gp)): substrate

**Q.** Which “number of strokes in patients with only AF or atrial flutter on all ECGs” value [3] does the source give for `CCCCc1oc2ccc(NS(C)(=O)=O)cc2c1C(=O)c1ccc(OCCCN(CCCC)CCCC)cc1` [dronedarone] here?
**A.** Its value is 2.

**Q.** And the “time to first recurrence of AF (TTFR)” value (AF patients)?
**A.** Its value is “significant increase in TTFR compared to placebo”.

**Q.** Which P-gp inhibition (P-glycoprotein (P-gp)) does the source give for `C=C[C@H]1C[N@@]2CC[C@H]1C[C@@H]2[C@@H](O)c1ccnc2ccc(OC)cc12` [quinidine] here?
**A.** The P-gp inhibition was “particularly potent P-gp inhibitor”.

**Q.** For `CC(OC(=O)c1ccc(Cc2c(O)c3ccccc3oc2=O)cc1)(C(F)(F)F)C(F)(F)F` [tecarfarin], which “proportion of time with INR below 1.5” value [4] is on record?
**A.** The value was 1.2%.

**Q.** What about the “proportion of time with INR between 1.5 and 1.9” value [4] of the same compound?
**A.** Its value is 14.2%.

**Q.** And the “time in therapeutic range (TTR), INR between 2.0 and 3.0” value [4]?
**A.** The value was 71.5%.

**Q.** Which “proportion of time with INR below 1.5” value [4] does the source give for `CC(=O)CC(c1ccccc1)c1c(O)c2ccccc2oc1=O` (centres unmarked) [warfarin] here?
**A.** The value was 3.9%.

**Q.** What about the “proportion of time with INR between 1.5 and 1.9” value [4] of the same compound?
**A.** The value was 22.4%.

**Q.** What about the “time in therapeutic range (TTR), INR between 2.0 and 3.0” value [4] of the same compound?
**A.** Its value is 59.3%.

**Q.** What about the strokes prevented (patients with AF) of the same compound?
**A.** The strokes prevented was 64%.
